Experimental data published in ChEMBL document CHEMBL1201862, “PubChem BioAssay data set” (2004).
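Following 48 hours of exposure in 96-well plates, responses at five concentrations were used to interpolate endpoints linearly. At the GI50, growth is halved.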 Active and inactive are the calls of the source. Cut-off read from the data, not from the text of the source: active = GI50 up to about 1.1 µM and inactive = higher.

Experiments:
Assay in all cases: DTP human tumour cell line panel, 48 h
OVCAR-8 = tested on: OVCAR-8
LOX IMVI = tested on: LOX IMVI
NCI-H522 = tested on: NCI-H522
MDA-MB-435 = tested on: MDA-MB-435
SF-539 = tested on: SF-539
A498 = tested on: A498
UO-31 = tested on: UO-31
M14 = tested on: M14
SK-MEL-2 = tested on: SK-MEL-2
CAKI-1 = tested on: CAKI-1
ACHN = tested on: ACHN
SK-MEL-28 = tested on: SK-MEL-28
OVCAR-4 = tested on: OVCAR-4
HCT-116 = tested on: HCT-116
MOLT-4 = tested on: MOLT-4
786-0 = tested on: 786-0
EKVX = tested on: EKVX
SR = tested on: SR
T47D = tested on: T47D
MCF7 = tested on: MCF7

Measured: GI50

C/C1=C\CC/C(C)=C/C=C(/C(C)C)CC/C(C(=O)O)=C/CC1 [CROTOCEMBRANEIC ACID]
inactive: OVCAR-8 66.2 µM | LOX IMVI 54.8 µM | NCI-H522 38.1 µM | MDA-MB-435 44.4 µM | SF-539 37.9 µM | A498 21 µM | UO-31 72.8 µM | M14 45 µM | SK-MEL-2 25.7 µM | CAKI-1 49.9 µM | ACHN 34.5 µM | SK-MEL-28 > 100 µM | OVCAR-4 55.1 µM | HCT-116 40.3 µM | MOLT-4 28.3 µM | 786-0 55.7 µM | EKVX 39 µM | SR 22 µM | T47D 23.2 µM | MCF7 34.2 µM
